Source: patent publication US20210317113A1, “1,2,3-TRIAZOLE DERIVATIVES AND USES THEREOF” (Alxerion Biotech LLC, priority 2020, published 2021)
Like-named read-outs stand apart in the source and are kept apart here.

Legend:
[1] = test system: Non-Small Lung Cancer Cells (NSLCs); experiment: Cancer migration (wound healing) assay; assay type: cell-based; details: for concentration at which cell migration was completely impaired: 20 mM calcium medium (FIG. 3)
Excerpt: The ability of 1,2,3-triazole derivatives according to the disclosure to inhibit cancer cell migration and proliferation in vitro can be measured, e.g., by a wound healing assay (Rodriguez et al., in Cell Migration: Developmental Methods and Protocols, Web et al., Guan ed. Humana Press 294, 23-29). This assay is based on the observation that, upon the creation of an artificial gap on a confluent cancer cell monolayer, the cells on the edge of the created gap will start migrating and proliferating until new cell-cell contacts are established (EXAMPLE 3).
Non-Small Lung Cancer Cells (NSLCs) migration rate was assessed in an in vitro wound healing assay. This assay is based on the observation that, upon the creation of an artificial gap on a confluent cell monolayer, the cells on the edge of the created gap will start migrating and proliferating until new cell-cell contacts are established.
A confluent cell layer is a prerequisite for starting this assay. Gap formation is done manually with a scrapper and cell proliferation and migration is determined recording a time-lapse video for 20 hr. with a time interval of 30 min. The microscopic pictures are manually analyzed for obtaining information about the proliferation and migration characteristics of the cultured cells and the image analysis detects the cell covered area.
NSLCs were cultured in Eagle's Minimum Essential Medium (ATCC-formulated medium, Catalog No. 30-2003) containing fetal bovine serum at 10% during several periods. Wound healing assays with supplemented medium containing 1,2,3-triazole derivatives were performed to evaluate the inhibitory effect on proliferation and migration of cancer cells.
In order to simulate as close as possible the in vivo cancer microenvironment, human plasma and calcium were added to the cell culture system to provide the hemostatic factors normally present in the cancer stroma. The previous day, cells were seeded with 10% FBS at a number that would provide 90% confluence the next day. On Day 0, a scratch (“a wound”) was performed in the middle of the well and the 10% FBS medium was replaced with 20% plasma, 20 mM calcium medium, with or without Derivative 1. 10% FBS medium was used as control in these experiments. “Wound healing” or closure of the scratch was assessed over a period of 4 days, and cell number in the wound area was quantified for each condition. Increasing amount of Derivative 1 (LTI6) was used to attain a dose-response curve.
The cell function effect of Derivative 1 was compared with Tranexamic Acid (TNA) and Caproic Acid (CA), commercially available and widely used anti-metastasis drugs.

[2] = test system: fibrinolysis mediated by tPA (plasminogen activation by tPA); experiment: Fibrinolytic assay: one-step spectrophotometric clot lysis in human plasma; assay type: biochemical; details: for IC50: concentration at which 50% of total fibrinolysis mediated by tPA is inhibited, human ACD plasma, clot triggered by TF, absorbance 340 nm, read-out: Anti-fibrinolytic (SERPIN) Activity IC50; for inhibition of fibrinolysis mediated by tPA (in words): different concentrations, FIGS. 2B-2D
Procedure: Fibrinolytic activity in human plasma was determined by a one-step spectrophotometric method (Gidron et al. (1978) J. Clin. Pathol. 31(1):54-57) with minor modifications (see EXAMPLE 2). In this method, fibrin clot formation in anticoagulant citrate dextrose (ACD) plasma samples obtained from healthy volunteers is triggered by tissue factor (TF) and can be quantified by spectrometry as a significant increase in basal plasma absorbance at 340 nm.
As shown in FIGS. 2A-2D, in the absence of tPA, plasma absorbance remains permanently elevated.
Fibrinolytic activity in human plasmas in the presence of derivatives according to the disclosure was determined by a one-step spectrophotometric method.
Fibrin clot formation in the anticoagulant acid citrate dextrose (ACD)-treated plasma obtained from healthy volunteers is triggered by tissue factor (TF) (Thromborel S, Siemens Healthineers) and quantifies by spectrophotometry at 340 nm (using a Molecular Devices SpectraMax® M2e Multimode Microplate Reader). When recombinant human Tissue Plasminogen Activator (tPA, final concentration of 5.2 μg/ml) is simultaneously added, fibrinolysis of the clot can be determined.
Fresh blood was extracted from healthy volunteers. ACD, to reach a 10% concentration, was instantly added to the extracted blood, to prevent any unwanted coagulation. After that, blood was centrifuged for 15 min at 1,000 g. Plasma was clearly separated from red blood cells. 3 mL aliquots of aspirated plasma were immediately frozen at −20° C.
4 mL of ddH2O was added to a vial of Thromborel S and mixed thoroughly for 2 min. and left at 4° C. 500 μL TF aliquots were used for each experiment.
Representative derivatives of the present disclosure (Nos. 1, 5, and 7) were diluted in DMSO (those with Boc) or ddH2O (those with HCl) to a final concentration of 10 mM. A solution containing 1 M Tris HCl, pH 7.5 (Fisher BioReagent) (Buffer A), 0.110 g of CaCl2) in 10 mL of ddH2O (Buffer B), and tPA (Abcam, 1.3 mg/mL added into the diluted derivative solution, final concentration in serum was 5.2 μg/mL), and the derivative was prepared in a total volume of 75 μL and added to untreated, flat, clear Costar® 96-well plates in triplicate. Absorbance at 340 nm at 37° C. for 30 min was recorded every 15 sec. The plates were shaken every 3 sec in between readings. Controls for basal plasma absorbance, basal coagulation absorbance and basal fibrinolytic activity absorbance were performed in every assay.
FIG. 2A show the results a control experiment displaying the ability of TF to cause fibrin clot formation in the absence and presence of t-PA. TF was able to cause fibrin clot formation evaluated as a significant increase of the basal plasma absorbance at 340 nm.

[3] = test system: Non-Small Lung Cancer Cells (NSLCs); experiment: Trypan Blue Exclusion Test of cancer cell viability; assay type: cell-based; details: for IC50: defined in text as concentration of derivative causing greater than 90% of the cells to die, read-out: Anti-Cancer Activity (Trypan Blue Exclusion Assay) IC50
Procedure: The ability of 1,2,3-triazole derivatives according to the disclosure to kill cancer cells can be measured, e.g., by Trypan Blue Exclusion Assay which measured cell death by starvation due to the presence of the derivative (see EXAMPLE 4). The results obtained using this assay with some representative 1,2,3-triazole derivatives according to the disclosure are shown below in Table 4.
The effect of Derivative 1 on cancer cell viability was determined using the Trypan Blue Exclusion Test (Stober (2001) (Curr. Protoc. Immunol., May; Appendix 3:Appendix 3B. doi: 10.1002/0471142735.ima03bs21). The viability of Non-Small Lung Cancer Cells (NSLCs) was assessed over a period of 15 days after the promotion of coagulation with or without 200 μM of 1,2,3-triazole derivative 1 and with or without 2% human plasma. Fresh 2% FBS medium corresponding to each condition was added every 3 days. Cell death was analyzed using Trypan blue staining. 2% FBS medium was used as control. Some representative results are shown in FIGS. 4A-4F.

[4] = 96 h, NSLCs, 20% plasma, 20 mM calcium medium, wound closure over 4 days (FIG. 3), read-out: IC50 from dose response curve, cell migration
[5] = wound healing assay, dose-response curve, read-out: Anti-Cancer Activity (Inhibition of Cancer Cell Migration) IC50

## CCCCCC(=O)O [CA, Caproic Acid, reference compound]
[1]; 96 h, read-out: IC50 from dose response curve, cell migration
  IC50: 1340 µM
[1]; NSLCs, 20% plasma
  concentration at which cell migration was completely impaired: 1400 µM

## O=c1[nH]nc(-c2cn(C3CCNCC3)nn2)o1 [Derivative 1]
[1]; [4]
  IC50: 96.1 µM
[1]; NSLCs, 20% plasma
  concentration at which cell migration was completely impaired: 100 µM
[1]; from IC50 values, vs Caproic Acid
  potency relative to CA in inhibition of migration of cancer cells: > 10 ×
[1]; from IC50 values, vs Tranexamic Acid
  potency relative to TNA in inhibition of migration of cancer cells: > 4 ×
[1]; [5]
  IC50: 120 µM
[2]; listed as 1
  IC50: 50 µM
[2]
  inhibition of fibrinolysis mediated by tPA (in words): completely inhibit fibrinolysis
[3]; 200 μM, plasma conditions, 7 days, vs plasma alone (FIG. 4C)
  cell death by Trypan blue staining after 7 days (in words): even more significant
[3]; 200 μM, plasma conditions, 15 days, vs FBS and plasma alone (FIG. 4F)
  cell death by Trypan blue staining after 15 days (in words): increased cell death
[3]; listed as 1
  IC50: 250 µM

## NCCCn1cc(-c2n[nH]c(=O)o2)nn1 [Derivative 2]
[1]; [5]
  IC50: 350 µM
[2]
  IC50: 200 µM
[3]
  IC50: 550 µM

## NNC(=O)c1cn(C2CCNCC2)nn1 [Derivative 3]
[1]; [5]
  IC50: 230 µM
[2]
  IC50: 180 µM
[3]
  IC50: 410 µM

## NCCCn1cc(C(=O)NN)nn1 [Derivative 4]
[1]; [5]
  IC50: 1200 µM
[2]
  IC50: 800 µM
[3]
  IC50: 2100 µM

## O=c1[nH]c(-c2cn(C3CCNCC3)nn2)no1 [Derivative 5]
[1]; wound healing assay, dose-response curve, listed as 5, read-out: Anti-Cancer Activity (Inhibition of Cancer Cell Migration) IC50
  IC50: 90 µM
[2]; listed as 5
  IC50: 35 µM
[2]
  inhibition of fibrinolysis mediated by tPA (in words): completely inhibit fibrinolysis
[3]; listed as 5
  IC50: 150 µM

## NCCCn1cc(-c2noc(=O)[nH]2)nn1 [Derivative 6]
[1]; [5]
  IC50: 650 µM
[2]
  IC50: 375 µM
[3]
  IC50: 800 µM

## NC(NO)c1cn(C2CCNCC2)nn1 (stereo not shown) [Derivative 7]
[1]; [5]
  IC50: 270 µM
[2]
  IC50: 125 µM
  inhibition of fibrinolysis mediated by tPA (in words): completely inhibit fibrinolysis
[3]
  IC50: 415 µM

## NCCCn1cc(/C(N)=N/O)nn1 [Derivative 8]
[1]; [5]
  IC50: 500 µM
[2]
  IC50: 350 µM
[3]
  IC50: 750 µM

## N/C(Cc1cn(C2CCNCC2)nn1)=N/O [Derivative 10]
[1]; [5]
  IC50: 250 µM
[2]
  IC50: 150 µM
[3]
  IC50: 370 µM

## NCCCn1cc(C/C(N)=N\O)nn1 [Derivative 11]
[1]; [5]
  IC50: 510 µM
[2]
  IC50: 325 µM
[3]
  IC50: 680 µM

## NCCCn1cc(C(=O)O)nn1 [Derivative 13]
[1]; [5]
  IC50: 125 µM
[2]
  IC50: 75 µM
[3]
  IC50: 170 µM

## NCCCn1ccnn1 [Derivative 14]
[1]; [5]
  IC50: 250 µM
[2]
  IC50: 130 µM
[3]
  IC50: 450 µM

## NCCn1cc(C(=O)NN)nn1 [Derivative 15]
[1]; [5]
  IC50: 104 µM
[2]
  IC50: 24 µM
[3]
  IC50: 815 µM

## NNC(=O)c1cn(C2CCC(N)CC2)nn1 (stereo not shown) [Derivative 16]
[1]; [5]
  IC50: 250 µM
[2]
  IC50: 58 µM
[3]
  IC50: 430 µM

## NC1CCC(n2cc(-c3n[nH]c(=O)o3)nn2)CC1 (stereo not shown) [Derivative 17]
[1]; [5]
  IC50: 650 µM
[2]
  IC50: 320 µM
[3]
  IC50: 1350 µM

## NCCn1cc(-c2n[nH]c(=O)o2)nn1 [Derivative 18]
[1]; [5]
  IC50: 345 µM
[2]
  IC50: 250 µM
[3]
  IC50: 550 µM

## NC1CCC(n2cc(-c3noc(=O)[nH]3)nn2)CC1 (stereo not shown) [Derivative 19]
[1]; [5]
  IC50: 610 µM
[2]
  IC50: 375 µM
[3]
  IC50: 880 µM

## NCCn1cc(-c2noc(=O)[nH]2)nn1 [Derivative 20]
[1]; [5]
  IC50: 87 µM
[2]
  IC50: 15 µM
[3]
  IC50: 210 µM

## O=C(O)c1nnc(-c2cn(C3CCNCC3)nn2)o1 [Derivative 21]
[1]; [5]
  IC50: 100 µM
[2]
  IC50: 35 µM
[3]
  IC50: 150 µM

## NCCCn1cc(-c2nnc(C(=O)O)o2)nn1 [Derivative 22]
[1]; [5]
  IC50: 120 µM
[2]
  IC50: 50 µM
[3]
  IC50: 210 µM

## NC1CCC(n2cc(-c3nnc(C(=O)O)o3)nn2)CC1 (stereo not shown) [Derivative 23]
[1]; [5]
  IC50: 89 µM
[2]
  IC50: 35 µM
[3]
  IC50: 210 µM

## NCCn1cc(-c2nnc(C(=O)O)o2)nn1 [Derivative 24]
[1]; [5]
  IC50: 620 µM
[2]
  IC50: 315 µM
[3]
  IC50: 810 µM

## N/C(=N\O)c1cn(C2CCC(N)CC2)nn1 (stereo not shown) [Derivative 25]
[1]; [5]
  IC50: 420 µM
[2]
  IC50: 205 µM
[3]
  IC50: 610 µM

## NC[C@H]1CC[C@H](C(=O)O)CC1 [TNA, Tranexamic Acid, reference compound]
[1]; [4]
  IC50: 438 µM
[1]; NSLCs, 20% plasma
  concentration at which cell migration was completely impaired: 250 µM
